Measured values reported in patent US20110123600A1, “Use of alkylureas for treating acne” (priority 2005, published 2011).

Legend:
[1] = tested on: inflamed cystic lesions of acne; assay: BU in polymer gel applied topically to patients with inflamed cystic lesions of acne; assay type: in vivo; details: polymer gel releasing 0.4 to 0.5 molar BU, 11 patients
Method: BU in polymer gels: BU incorporated in a polymer gel designed to release the chemical within 30 minutes to 3 hours was administered topically to 11 patients with inflamed cystic lesions of acne. The BU end concentration to be released was between 0.4 to 0.5 molar. Applications to the lesions alone were made 3× daily for 1 week. […] The purulent discharge as well as the inflammatory component of all lesions resolved often within 24 hours.

Staphylococcus aureus = assay: Aerobic plate count after one hour contact with butylurea solution; assay type: cell-based; details: 0.4M BU, vs saline control
Method: (§1) Preparation of Sample: 11.6 grams of butyl urea (BU) sample was weighed accurately and dissolved in de-ionized water to 100 ml into 100 ml volumetric flask and mixed to form a 1M (11.6% w/v) solution. Then, 10.0 ml of the 1M solution was mixed with 12.7 ml de-ionized water to form a 0.44M (5.1% w/v) solution. (10.0 ml×1.0M÷22.7 ml=0.44M). Finally, the 0.44M solution was filtered through sterile syringe filters to sterilize.
(§2) Procedure: For the 0.4M butylurea solutions, 4.5 ml was aliquoted into seven (7) 16×150 mm sterile glass test tubes. 4.5 ml sterile physiological saline was also aliquoted into seven (7) 16×150 […] sterile glass test tubes as a control.
(§3) 0.6 ml of culture suspension was inoculated into 0.44M BU and saline control tube for each organism tested and mixed. After one hour contact time a 1.0 ml sample culture mixer was diluted serially into 10^6 into 9.0 ml GBL Stat Broth (TSB; 0.5% Leethen; 4% Tween 20 and 0.1% […]).
(§4) One ml Aerobic Plate Count was performed from each dilution tubes using Trypticase Soy Agar. Plates were incubated at 37±° C. for 48 hours. Except Candida albicans plates were poured with Sabourad Dextrose Agar and incubated at 20 to 25° C. for 5 to 7 days. Colonies were counted using a Quebec Colony Counter.

Streptococcus pyogenes = assay: as above; assay type: cell-based; details: 0.4M BU, vs saline control
Method: as §1, §2, §3, §4

Candida albicans = assay: Plate count after one hour contact with butylurea solution; assay type: cell-based; details: 0.4M BU, vs saline control
Method: as §1, §2, §3, §4

acne lesions = assay: BU aqueous solution applied to acne lesions in adolescents; assay type: in vivo; details: 0.5 molar (5.8% w/v) aqueous solution, twice daily, 5 adolescents
Method: BU in an squeous solution: A 0.5 molar (5.8% w/v) solution of BU was applied twice daily with Q tips to acne lesions in 5 adolescents. BU was applied to cystic purulent lesions, to non cystic lesions with erythema and to early lesions with minimal inflammation. The inflammatory response resolved in all lesions within 24-48 hours, whereas purulent cystic lesions healed without scarring within 3-7 days.

Structure (SMILES): CCCCNC(N)=O [BU, butyl urea]
- Local adverse reactions ([1]; topical 3x daily for 1 week): no local adverse reactions were noted
- Resolution of lesions by the end of the treatment ([1]; topical 3x daily for 1 week): Most of the lesions resolved
- Time to resolution of purulent discharge and inflammatory component of all lesions ([1]; topical 3x daily, 'often'): ≤ 24 h
- Reduction in bacterial count (Staphylococcus aureus): Not Active
- log Reduction in bacterial count (Streptococcus pyogenes): 2 log Reduction
- log Reduction in count (Candida albicans): 0.4 log Reduction
- Time to healing of purulent cystic lesions without scarring (acne lesions): 3 to 7 days
- Time to resolution of inflammatory response in all lesions (acne lesions): 24 to 48 h
